Patent EP0556482B1, “Propyl endopeptidase inhibitor” (SNOW BRAND MILK PRODUCTS CO., LTD., priority 1991, dated 1993)
pIC50: −log10 of the molar value. Read-outs that look alike come from different tables or passages of the source. *1 amine or outer side, *2 acyl side, *3 side chain or, on linkers, in order; H or OH if unused. Where a SMILES comes first, the peptide text is derived from it. Bridges are numbered along the chain shown (N, C = ends). [ ]: non-standard residue; d: D form. The star is where a group is joined. Undeca(2Z,4E)dienoyl(10-Me) = CC(C)CCCC/C=C/C=C\C(=O)*; Phg(3,5-Cl2-4-OH) = N[C@H](C(=O)O)c1cc(Cl)c(O)c(Cl)c1; X1 = N=C1NC[C@@H](C[C@@H](N[*:1])C(=O)[*:2])N1; X2 = N=C1NC[C@@H](C[C@H](N[*:1])C(=O)[*:2])N1; d(aThr) = C[C@@H](O)[C@@H](N)C(=O)O; dHpg = N[C@@H](C(=O)O)c1ccc(O)cc1; Hpg = N[C@H](C(=O)O)c1ccc(O)cc1; Cit = NC(=O)NCCC[C@H](N)C(=O)O; aThr = C[C@H](O)[C@H](N)C(=O)O; dOrn = NCCC[C@@H](N)C(=O)O

Tests used:
mouse = details: in vivo, ip; cited from earlier work
[1] = molecular target: T1, prolyl endopeptidase derived from human placenta (Homo sapiens, UniProt P48147); assay: Prolyl endopeptidase inhibitive activity, human placenta enzyme (fluorometric, Z-Gly-Pro-7-AMC substrate); format: biochemical; design: obtaining a supernatant, from which microsome fractions had been removed, as a prolyl endopeptidase fraction; from tissue; host or cells: human placenta, cytosol fraction (104,000 x g supernatant), crude enzyme
T1 sequence (P48147 1-710): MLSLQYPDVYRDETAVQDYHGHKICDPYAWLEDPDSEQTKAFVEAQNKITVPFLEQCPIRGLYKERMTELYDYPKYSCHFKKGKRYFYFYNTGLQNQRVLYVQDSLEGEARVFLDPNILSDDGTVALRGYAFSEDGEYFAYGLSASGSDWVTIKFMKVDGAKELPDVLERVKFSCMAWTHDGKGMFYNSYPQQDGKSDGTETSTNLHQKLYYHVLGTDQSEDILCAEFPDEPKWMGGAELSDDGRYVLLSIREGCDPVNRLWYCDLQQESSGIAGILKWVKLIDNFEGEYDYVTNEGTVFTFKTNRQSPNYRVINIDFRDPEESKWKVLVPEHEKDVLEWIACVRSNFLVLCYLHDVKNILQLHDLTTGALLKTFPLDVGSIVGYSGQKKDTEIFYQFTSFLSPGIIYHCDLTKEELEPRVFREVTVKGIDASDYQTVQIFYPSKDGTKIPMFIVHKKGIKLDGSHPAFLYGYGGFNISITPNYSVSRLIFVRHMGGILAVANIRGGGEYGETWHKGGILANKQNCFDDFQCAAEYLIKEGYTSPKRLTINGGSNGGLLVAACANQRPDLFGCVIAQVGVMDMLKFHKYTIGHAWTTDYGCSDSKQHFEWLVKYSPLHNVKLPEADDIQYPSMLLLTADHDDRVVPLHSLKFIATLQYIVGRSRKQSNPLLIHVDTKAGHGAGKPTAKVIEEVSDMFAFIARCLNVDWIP
Protocol: (§1) The inhibitive activity of enduracidin A was measured by using a methanol solution of this compound.
(§2) The prolyl endopeptidase inhibitive activity in the present invention was measured by the following method. Prolyl endopeptidase from human placenta was prepared according to the method for preparing aromatase [Chem. Pharm. […] The placenta tissues were pulverized and homogenized with a 67 mM potassium phosphate buffer (pH 7.5) containing 5 mM DTT and 0.25 M sucrose. The homogenized solution was centrifuged at 10,000 x g for 30 minutes to obtain a supernatant.
To carry out the enzyme reaction, 0.01 ml of each sample dissolved in methanol in various concentrations and 0.01 ml of the placenta cytosol fraction were added to 0.96 ml of a 0.1 M Tris-HCl buffer solution (pH 7.0), and the resulting solution was mixed and incubated at 37°C for 5 minutes. The reaction was initiated by the addition of 0.02 ml of a 2 mM solution of synthesized substrate, Z-Gly-Pro-7-AMC (a product of Cambridge Research Biochemicals), dissolved in 40% dioxane to said solution, and continued for 10 minutes at 37°C. […]
(§3) The inhibition rate was determined by the formula, [(A-B)/A] x 100 (%), wherein A represents a fluorescent concentration of liberated 7-AMC in the reaction of the control and B is a fluorescent concentration of liberated 7-AMC in the reaction to which a sample was added.

rat = details: in vivo, iv; cited from earlier work
[2] = molecular target: T1, prolyl endopeptidase derived from human placenta; assay: Prolyl endopeptidase inhibitive activity, human placenta enzyme (fluorometric, Z-Gly-Pro-7-AMC substrate); format: biochemical; design: obtaining a supernatant, from which microsome fractions had been removed, as a prolyl endopeptidase fraction; from tissue; host or cells: human placenta, cytosol fraction (104,000 x g supernatant)
Protocol: as §1, §2
To carry out the enzyme reaction, 0.01 ml of each sample dissolved in methanol in various concentrations and 0.01 ml of the placenta cytosol fraction were added to 0.96 ml of a 0.1 M Tris-HCl buffer solution (pH 7.0), and the resulting solution was mixed and incubated at 37°C for 5 minutes. The reaction was initiated by the addition of 0.02 ml of a 2 mM solution of synthesized substrate, Z-Gly-Pro-7-AMC (a product of Cambridge Research Biochemicals), dissolved in 40% dioxane to said solution, and continued for 10 minutes at 37°C. After the reaction, 0.5 ml of a reaction termination agent (10 g of Triton X-100/95 ml, 1 M acetate buffer, pH 4.0) and 2 ml of water were added to measure 7-AMC (7-amino-4-methylcoumarin) liberated by the reaction at an excitation wavelength of 380 nm and an emission wavelength of 460 nm.
as §3

[3] = molecular target: T2, prolyl endopeptidase derived from Flavobacterium (Elizabethkingia meningoseptica, UniProt P27028); format: biochemical; details: Table 1; enzyme from Flavobacterium; read-out: IC₅₀ (µM) Flavobacterium
T2 construct: purchased Seikagaku Kogyo Co
T2 sequence (P27028 21-705): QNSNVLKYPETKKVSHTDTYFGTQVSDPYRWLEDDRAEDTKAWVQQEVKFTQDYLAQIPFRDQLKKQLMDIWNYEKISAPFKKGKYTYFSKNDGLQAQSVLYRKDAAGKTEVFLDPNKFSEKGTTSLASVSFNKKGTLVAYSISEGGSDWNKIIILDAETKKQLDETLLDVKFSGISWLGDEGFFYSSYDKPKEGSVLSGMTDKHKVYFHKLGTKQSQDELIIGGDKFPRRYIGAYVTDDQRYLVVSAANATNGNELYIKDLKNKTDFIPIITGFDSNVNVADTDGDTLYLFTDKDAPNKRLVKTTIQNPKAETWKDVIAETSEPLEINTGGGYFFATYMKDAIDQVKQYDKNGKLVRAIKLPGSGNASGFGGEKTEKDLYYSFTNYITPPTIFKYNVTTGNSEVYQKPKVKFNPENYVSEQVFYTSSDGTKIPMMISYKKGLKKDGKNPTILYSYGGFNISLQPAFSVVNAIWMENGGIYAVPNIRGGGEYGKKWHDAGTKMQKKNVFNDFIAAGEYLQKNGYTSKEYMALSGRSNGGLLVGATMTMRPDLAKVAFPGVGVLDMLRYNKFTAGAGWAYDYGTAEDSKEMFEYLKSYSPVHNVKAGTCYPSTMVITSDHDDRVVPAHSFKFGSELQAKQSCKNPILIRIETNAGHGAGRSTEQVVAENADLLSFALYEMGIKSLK
Protocol: as §1, §3

[4] = comparison of both enzymes, in words

CC(C)CCCC/C=C/C=C\C(=O)N[C@@H](CC(=O)O)C(=O)N[C@@H]1C(=O)N[C@H](c2ccc(O)cc2)C(=O)N[C@H](CCCN)C(=O)N[C@H]([C@@H](C)O)C(=O)N[C@@H](c2ccc(O)cc2)C(=O)N[C@H](c2ccc(O)cc2)C(=O)N[C@@H]([C@H](C)O)C(=O)N[C@@H](CCCNC(N)=O)C(=O)N[C@H](C[C@@H]2CNC(=N)N2)C(=O)N[C@@H](c2ccc(O)cc2)C(=O)N[C@H](CO)C(=O)N[C@@H](c2cc(Cl)c(O)c(Cl)c2)C(=O)NCC(=O)N[C@@H](C[C@@H]2CNC(=N)N2)C(=O)N[C@H](C)C(=O)N[C@@H](c2ccc(O)cc2)C(=O)O[C@@H]1C [Enduracidin A] ({Undeca(2Z,4E)dienoyl(10-Me)}-DT[dHpg][dOrn][d(aThr)][Hpg][dHpg][aThr][Cit][X1][Hpg][dS][Phg(3,5-Cl2-4-OH)]G[X2][dA][Hpg]; ester 2-C)
acute toxicity LD₅₀ (mouse): greater than 400 mg/kg
mode of inhibition ([1]; Dixon Plot, enzyme from human placenta): noncompetitive inhibition
specificity: inhibitive activity to enzyme from human placenta compared with enzyme from Flavobacterium [1, 4]: much higher specificity to the enzyme derived from human placenta
acute toxicity LD₅₀ (rat): > 300 mg/kg

CC[C@H](C)[C@H](NC(=O)[C@H](Cc1ccccc1)NC(=O)[C@@H](NC(=O)[C@H](Cc1c[nH]cn1)NC(=O)CNC(=O)CNC(=O)[C@H](Cc1ccccc1)NC(=O)[C@H](CC(C)C)NC(=O)[C@@H]1CC(=O)NCC(=O)N[C@@H](Cc2ccc(O)cc2)C(=O)N2CCC[C@H]2C(=O)N[C@@H](Cc2c[nH]c3ccccc23)C(=O)N[C@@H](Cc2c[nH]c3ccccc23)C(=O)N[C@@H](CC(=O)O)C(=O)N[C@@H](Cc2ccc(O)cc2)C(=O)N[C@@H](CCCNC(=N)N)C(=O)N1)[C@@H](C)O)C(=O)N[C@@H](CO)C(=O)N1CCC[C@H]1C(=O)O [SNA-115] (GYPWWDYRDLFGGHTFISP-OH; lactam N-9)
IC50 ([2]; Table 1, enzyme from human placenta, read-out: IC₅₀ (µM) Human placenta): 0.22 µM
specificity: inhibitive activity to enzyme from human placenta compared with enzyme from Flavobacterium [2, 4]: almost the same degree of inhibitive activity
IC50 [3]: 0.35 µM

CN[C@@H]1C[C@H]2O[C@@](C)([C@@H]1OC)n1c3ccccc3c3c4c(c5c6ccccc6n2c5c31)C(=O)NC4 [Staurosporine]
pIC50 [2]: < 3.97
inhibitive activity to the enzyme derived from human placenta ([2]; result in words): very weak inhibitive activity
